Like-named read-outs stand apart in the source and are kept apart here.
Assays:
[1] = Dissolution of lomustine in aqueous cyclodextrin solution (solubility); format: physicochemical
From the text: However, they made an unexpected discovery that a methyl-β-CD (methyl-β-cyclodextrin) solution was able to dissolve lomustine crystals to the aqueous phase within a few seconds. They determined that the mechanism of this process is mostly related to co-dissolution rather than the formation of an inclusion complex as is often the case. In this respect, the formation of an inclusion complex usually takes from a few to several hours and requires constant mixing, heating and the use of a co-solvent such as ethanol or methanol.
The present invention provides a method of preparing a liposomal form of lomustine by (i) producing its aqueous solution of high concentration and (ii) then encapsulating it in the aqueous space of liposomes. Thanks to the use of selected cyclodextrins it is possible to obtain a high concentration of lomustine in water of ~20 mg / ml. The normal concentration of lomustine is not more than 0.11 mg/ml when no additives are used. This method makes it possible to encapsulate lomustine in the water space of liposomes in the form of its solution in water or/and inclusion complex with cyclodextrins, or to obtain the effect of co-dissolving lomustine and cyclodextrin in an aqueous solution. The main advantage of this solution is to limit the crystallization and escape of the drug from the liposomes by transferring it to an aqueous solution using not organic solvents such as ethanol, but various organic substances that can be administered intravenously without harming the patient and not damaging the liposomes as is the case with high concentrations of ethanol needed to obtain a high concentration of lomustine in water.
For this reason, they were looking for a way to effectively encapsulate the drug in the aqueous space of liposomes as a real solution. While searching for substances that could potentially enable the transfer of lomustine from its crystals to the aqueous phase, inventors unexpectedly discovered that a methyl-β-CD solution dissolved lomustine within a few seconds. […]

[2] = in water, no additives used; cited from earlier work
[3] = cited from earlier work

Compound: O=NN(CCCl)C(=O)NC1CCCCC1 [lomustine]
- concentration of lomustine in solution ([1]; 25% methyl-β-CD solution, room temperature (R.T.)): at least 20 mg/ml
- time for dissolution of lomustine crystals to the aqueous phase ([1]; methyl-β-CD solution, room temperature): a few seconds
- concentration of lomustine in water ([1]; with selected cyclodextrins): ~ 20 mg / ml
- normal concentration of lomustine [2]: not more than 0.11 mg/ml
- metabolites remaining in the body ([3]; 5 days after administration): 15-20%
- time until active metabolites appear in substantial concentrations in CSF ([3]; after oral administration): ≤ 30 min
- concentration of metabolites in the cerebrospinal fluid relative to plasma ([3]; in vivo): 150%
- cyclohexyl moiety of lomustine bound to plasma proteins ([3]; in vivo): About 600
- second phase plasma half-life ([3]; in vivo): 24 to 48 h
- detection of lomustine in cerebral spinal fluid (CSF) ([3]; oral, parent drug): not detectable
- bioavailability ([3]; orally administered): very low
- biotransformation half-life ([3]; throughout the body): less than 1 hour
- dose of the drug excreted as metabolites in the urine ([3]; within 24 hours): about half
- dose of the drug excreted as metabolites in the urine ([3]; within 4 days): less than 75%
